# According to patent US12331051B2 (priority 2021, dated 2025):
# Assays:
# [1] = biological target: T1, Serotonin 2C receptor (5-HT2CR) (Homo sapiens, UniProt P28335); assay: Functional assay in HEK-293 cells (IP1); format: cell-based
# T1 construct: expressed in transfected cells; host or cells: HEK-293
# T1 sequence (P28335 33-458): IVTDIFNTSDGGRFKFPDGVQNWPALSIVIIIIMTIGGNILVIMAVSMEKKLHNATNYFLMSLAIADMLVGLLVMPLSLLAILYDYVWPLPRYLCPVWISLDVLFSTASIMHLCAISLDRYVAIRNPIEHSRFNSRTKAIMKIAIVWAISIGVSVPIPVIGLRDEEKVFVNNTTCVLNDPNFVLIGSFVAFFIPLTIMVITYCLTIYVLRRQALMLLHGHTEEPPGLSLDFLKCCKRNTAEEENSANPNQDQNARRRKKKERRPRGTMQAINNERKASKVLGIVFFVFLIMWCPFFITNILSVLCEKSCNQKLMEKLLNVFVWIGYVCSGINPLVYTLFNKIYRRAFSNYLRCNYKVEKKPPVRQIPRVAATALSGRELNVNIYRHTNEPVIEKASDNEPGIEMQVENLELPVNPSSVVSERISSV
# Method: Neuro-receptor binding and functional effects of the “E559 polymorph” was examined by analyzing binding affinity [Ki (nM)], functional agonist activity [EC50 (nM)], and functional antagonist activity [IC50 (nM)] against a panel of key receptors in neurophysiological disorders. Binding and functional assays were performed at “E559 polymorph” concentrations of 0.0003, 0.003, 0.01, 0.03, 0.1, 0.3, 1, and 10 μM. In binding assays, cell membrane homogenates, expressing each receptor target, were incubated with the corresponding radio-ligand in absence or presence of several concentration of the “E559 polymorph” compound. The measurement of binding affinity of the “E559 polymorph” is represented in TABLE XIII by Ki (nM) which was calculated as percent inhibition of the binding of a radioactively labeled reference ligand at each receptor. […] Following incubation, the cells were lysed and the appropriate fluorescent probe (Ca2+ flux, cAMP, or IP1) were added for 60 minutes to measure the fluorescence transfer at the appropriate wavelength using a microplate reader. The cellular agonist effect (EC50) was calculated as a percent of control response to a known reference agonist and the cellular antagonist effect (IC50) was calculated as a percent inhibition of control reference agonist response for each receptor.
# [2] = test system: cultured primary rat neurons; assay: Cell viability, Neurite Outgrowth Staining Kit; format: cell-based; conditions: DIV 6, all tested concentrations
# Method: The ability of the “E559 polymorph” to induce neural plasticity was evaluated in vitro. In vitro dendritogenesis and spinogenesis assays were conducted using primary rat embryonic cortical neurons. Briefly, cultured primary cortical neurons (rat) were treated at day in vitro (DIV) 3 for 3 hours with increasing concentrations (1, 10 and 100 nM, 1 and […]) of the “E559 polymorph” and morphological changes in dendritic arbor complexity (dendritogenesis) were assessed at DIV6 by immunofluorescent staining of fixed neurons with microtubule-associated protein 2 (MAP2, a microtubule marker), F-actin (cytoskeletal marker), and phalloidin (actin filament marker) followed by fluorescent microscopy and Sholl analysis of neurons' images. […] The spine density assessments (spinogenesis) were made on DIV 18. The cell viability assessments were made on DIV 6 by using the Neurite Outgrowth Staining Kit which includes fluorescent probes for dead and live neuronal cells. Ketamine was used as a comparator and positive control. Ketamine is known to induce dendritogenesis and its effects on synaptic plasticity are believed to mediate its antidepressant effects (Aguilar-Valles et al., Nature, 2021, 590, p315-319). Representative images of MAP2 stained rat cortical neurons treated with vehicle (no drug control) or with “E559 polymorph” is shown in FIG. 18A.
# [3] = biological target: T2, Beta 1 adrenergic receptor (Homo sapiens, UniProt P08588); assay: Radioligand binding, cell membrane homogenates
# T2 construct: expressed in transfected cells; host or cells: HEK-293
# Method: (§1) Neuro-receptor binding and functional effects of the “E559 polymorph” was examined by analyzing binding affinity [Ki (nM)], functional agonist activity [EC50 (nM)], and functional antagonist activity [IC50 (nM)] against a panel of key receptors in neurophysiological disorders. Binding and functional assays were performed at “E559 polymorph” concentrations of 0.0003, 0.003, 0.01, 0.03, 0.1, 0.3, 1, and 10 μM. In binding assays, cell membrane homogenates, expressing each receptor target, were incubated with the corresponding radio-ligand in absence or presence of several concentration of the “E559 polymorph” compound. The measurement of binding affinity of the “E559 polymorph” is represented in TABLE XIII by Ki (nM) which was calculated as percent inhibition of the binding of a radioactively labeled reference ligand at each receptor. In functional assays the HEK-293 cells expressing each receptor target were suspended in buffer and distribute in microplates and incubated for 30 minutes at room temperature or 37° C. in the presence of buffer alone (basal control), the reference agonist or antagonist, or the “E559 polymorph. Following incubation, the cells were lysed and the appropriate fluorescent probe (Ca2+ flux, cAMP, or IP1) were added for 60 minutes to measure the fluorescence transfer at the appropriate wavelength using a microplate reader. The cellular agonist effect (EC50) was calculated as a percent of control response to a known reference agonist and the cellular antagonist effect (IC50) was calculated as a percent inhibition of control reference agonist response for each receptor.
# [4] = biological target: T3, Serotonin 1B receptor (5-HT1BR) (Homo sapiens, UniProt P28222); assay: Radioligand binding, cell membrane homogenates
# T3 construct: expressed in transfected cells; host or cells: HEK-293
# Method: as §1
# [5] = biological target: T4, Alpha 2C adrenergic receptor (Homo sapiens, UniProt P18825); assay: Radioligand binding, cell membrane homogenates
# T4 construct: expressed in transfected cells; host or cells: HEK-293
# T4 sequence (P18825 1-462): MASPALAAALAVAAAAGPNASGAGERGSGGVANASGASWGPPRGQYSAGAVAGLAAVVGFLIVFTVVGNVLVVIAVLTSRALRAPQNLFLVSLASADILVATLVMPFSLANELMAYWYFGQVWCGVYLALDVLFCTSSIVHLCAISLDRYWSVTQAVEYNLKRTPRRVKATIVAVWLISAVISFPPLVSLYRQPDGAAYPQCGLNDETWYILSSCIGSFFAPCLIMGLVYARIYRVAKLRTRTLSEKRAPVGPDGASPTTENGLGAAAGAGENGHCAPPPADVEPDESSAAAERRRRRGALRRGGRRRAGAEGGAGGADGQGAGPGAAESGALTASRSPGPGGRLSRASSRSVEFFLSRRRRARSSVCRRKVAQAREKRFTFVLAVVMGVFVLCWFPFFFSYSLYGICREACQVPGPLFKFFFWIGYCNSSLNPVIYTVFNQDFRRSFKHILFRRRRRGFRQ
# Method: as §1
# [6] = biological target: T5, 5-HT2A receptor (5-HT2AR) (Homo sapiens, UniProt P28223); assay: Radioligand binding, cell membrane homogenates
# T5 construct: expressed in transfected cells; host or cells: HEK-293
# Method: as §1
# [7] = biological target: T6, Alpha 2A adrenergic receptor (Homo sapiens, UniProt P08913); assay: Radioligand binding, cell membrane homogenates
# T6 construct: expressed in transfected cells; host or cells: HEK-293
# T6 sequence (P08913 1-465): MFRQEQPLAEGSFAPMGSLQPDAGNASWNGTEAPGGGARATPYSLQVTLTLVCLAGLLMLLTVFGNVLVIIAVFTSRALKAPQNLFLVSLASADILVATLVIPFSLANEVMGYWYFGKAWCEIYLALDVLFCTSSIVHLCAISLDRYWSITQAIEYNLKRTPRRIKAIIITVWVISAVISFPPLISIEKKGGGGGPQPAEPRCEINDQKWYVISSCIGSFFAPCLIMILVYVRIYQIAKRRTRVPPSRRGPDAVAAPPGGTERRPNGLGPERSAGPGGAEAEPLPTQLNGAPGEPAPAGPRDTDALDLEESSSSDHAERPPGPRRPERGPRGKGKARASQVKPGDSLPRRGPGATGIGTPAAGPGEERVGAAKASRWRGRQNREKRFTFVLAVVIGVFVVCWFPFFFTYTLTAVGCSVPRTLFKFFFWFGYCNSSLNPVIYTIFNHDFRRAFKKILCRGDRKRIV
# Method: as §1
# [8] = biological target: T7, Serotonin 7 receptor (5-HT7R) (Homo sapiens, UniProt P34969); assay: Radioligand binding, cell membrane homogenates
# T7 construct: expressed in transfected cells; host or cells: HEK-293
# Method: as §1
# [9] = biological target: ADRa1B (α1B adrenergic receptor) (Homo sapiens, UniProt P35368); assay: BRET-based G protein dissociation assay; format: cell-based
# Chain of ADRa1B (α1B adrenergic receptor) (P35368 whole entry): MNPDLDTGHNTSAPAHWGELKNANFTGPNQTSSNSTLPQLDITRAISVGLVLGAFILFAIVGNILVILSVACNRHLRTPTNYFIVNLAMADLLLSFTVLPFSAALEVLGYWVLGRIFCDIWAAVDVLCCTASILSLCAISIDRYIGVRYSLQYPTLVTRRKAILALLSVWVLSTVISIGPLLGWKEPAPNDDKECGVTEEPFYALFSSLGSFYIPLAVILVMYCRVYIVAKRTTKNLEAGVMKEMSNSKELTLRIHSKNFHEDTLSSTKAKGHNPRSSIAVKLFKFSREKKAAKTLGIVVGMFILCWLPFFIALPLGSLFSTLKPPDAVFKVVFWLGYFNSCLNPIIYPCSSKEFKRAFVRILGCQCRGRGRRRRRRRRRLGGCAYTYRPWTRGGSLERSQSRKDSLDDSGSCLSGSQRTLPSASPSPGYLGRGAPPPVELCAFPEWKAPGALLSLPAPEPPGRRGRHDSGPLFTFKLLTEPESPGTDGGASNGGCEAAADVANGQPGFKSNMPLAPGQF
# T2 sequence (P08588 whole entry): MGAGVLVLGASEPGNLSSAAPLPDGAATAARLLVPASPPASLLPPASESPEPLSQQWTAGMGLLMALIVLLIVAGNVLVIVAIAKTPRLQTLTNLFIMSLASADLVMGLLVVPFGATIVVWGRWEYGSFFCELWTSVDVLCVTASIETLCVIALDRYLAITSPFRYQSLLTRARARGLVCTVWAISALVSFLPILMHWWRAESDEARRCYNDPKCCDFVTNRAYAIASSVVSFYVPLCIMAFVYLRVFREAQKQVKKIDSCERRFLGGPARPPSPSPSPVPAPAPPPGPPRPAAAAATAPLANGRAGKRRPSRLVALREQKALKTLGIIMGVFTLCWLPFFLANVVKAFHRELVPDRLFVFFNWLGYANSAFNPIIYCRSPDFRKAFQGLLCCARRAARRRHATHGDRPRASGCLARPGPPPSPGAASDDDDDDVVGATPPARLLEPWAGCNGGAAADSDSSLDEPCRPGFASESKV
# T3 sequence (P28222 whole entry): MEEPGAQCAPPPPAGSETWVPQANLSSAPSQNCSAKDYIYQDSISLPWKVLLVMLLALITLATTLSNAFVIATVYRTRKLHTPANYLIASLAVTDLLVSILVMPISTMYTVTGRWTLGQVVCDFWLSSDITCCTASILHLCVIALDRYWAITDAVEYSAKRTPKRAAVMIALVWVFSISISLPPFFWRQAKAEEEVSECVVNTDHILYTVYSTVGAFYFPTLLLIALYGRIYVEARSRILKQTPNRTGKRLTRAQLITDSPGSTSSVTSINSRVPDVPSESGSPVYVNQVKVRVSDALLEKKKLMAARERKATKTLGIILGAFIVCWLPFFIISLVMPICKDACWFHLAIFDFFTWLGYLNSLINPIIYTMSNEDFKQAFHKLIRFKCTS
# T5 sequence (P28223 whole entry): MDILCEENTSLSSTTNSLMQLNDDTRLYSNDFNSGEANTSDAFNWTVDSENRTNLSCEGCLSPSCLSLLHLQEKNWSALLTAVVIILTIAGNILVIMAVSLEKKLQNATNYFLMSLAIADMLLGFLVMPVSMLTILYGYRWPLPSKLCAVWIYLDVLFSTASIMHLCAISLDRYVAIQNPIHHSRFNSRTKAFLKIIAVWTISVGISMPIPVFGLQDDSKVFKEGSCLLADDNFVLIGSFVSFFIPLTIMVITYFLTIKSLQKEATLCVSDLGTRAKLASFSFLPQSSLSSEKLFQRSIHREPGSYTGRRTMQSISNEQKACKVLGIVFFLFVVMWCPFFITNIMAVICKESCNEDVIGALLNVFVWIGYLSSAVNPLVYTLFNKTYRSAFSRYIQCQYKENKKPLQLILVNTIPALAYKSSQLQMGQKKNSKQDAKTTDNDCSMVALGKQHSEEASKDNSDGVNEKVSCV
# T7 sequence (P34969 whole entry): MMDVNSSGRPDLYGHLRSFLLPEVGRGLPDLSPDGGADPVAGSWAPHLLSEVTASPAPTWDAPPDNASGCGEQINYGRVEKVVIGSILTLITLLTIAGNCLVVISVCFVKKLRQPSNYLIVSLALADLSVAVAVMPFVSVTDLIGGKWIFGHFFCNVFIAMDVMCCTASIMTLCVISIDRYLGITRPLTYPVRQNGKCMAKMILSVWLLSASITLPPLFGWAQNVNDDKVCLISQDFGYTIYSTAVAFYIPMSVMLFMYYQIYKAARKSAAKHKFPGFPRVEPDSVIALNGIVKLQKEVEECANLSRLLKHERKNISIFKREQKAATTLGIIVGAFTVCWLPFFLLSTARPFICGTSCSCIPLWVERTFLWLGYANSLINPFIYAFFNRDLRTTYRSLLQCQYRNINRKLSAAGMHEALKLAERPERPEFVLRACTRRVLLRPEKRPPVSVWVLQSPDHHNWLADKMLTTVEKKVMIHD
smiles,measurement,setting,value
"CCN(CC)C(=O)[C@@H]1C=C2c3cccc4[nH]c(Br)c(c34)C[C@H]2N(C)C1 [E559, (5R, 8R)-2-Bromo-9,10-didehydro-N,N-diethyl-6-methylergoline-8-carboxamide hemi-D-tartrate]",EC50,[1],> 10000 nM
same,IC50,[1],1100 nM
same,viability of cultured primary rat neurons (cytotoxic activity),[2],no cytotoxic activity was observed at all tested concentrations
same,Ki,[3],109 nM
same,Ki,[4],77 nM
same,Ki,[5],27 nM
same,Ki,[6],2.2 nM
same,Ki,[7],10.3 nM
same,Ki,[8],3.81 nM
same,Kb,[9],55.9 nM
